pIC50: −log10 of the molar value.
Molecular target: Protein Tat (Human immunodeficiency virus type 1 group M subtype B (isolate HXB2)) (UniProt P04608)
Assay: inhibitors of Tat binding to TAR RNA, dose response, counter-screen for Vif-APOBEC3G degradation inhibitor project, biochemical, fluorescence polarization, FAM-labeled TAR RNA (AID 1117361)

Chain of Protein Tat (Human immunodeficiency virus type 1 group M subtype B (isolate HXB2)) (P04608 whole entry, looked up): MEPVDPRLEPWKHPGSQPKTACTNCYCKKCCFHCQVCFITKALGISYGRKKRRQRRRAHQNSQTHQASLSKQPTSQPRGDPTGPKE

Row | SMILES | pIC50
1 | CN1CCN(C2=C(Cl)C(=O)c3ccccc3C2=O)CC1 | 4.40
2 | S=c1[nH]nc(C2CC2)n1Cc1ccco1 | 4.34
3 | Cc1cccc(NC(=O)CSc2nnc(-c3ccco3)c(-c3ccco3)n2)c1C | 4.82
4 | CSc1nnc(-c2ccco2)c(-c2ccco2)n1 | 5.22
5 | Cc1ccc(NC(=O)CN(C)C(=O)c2cccc(-n3cccc3)c2)cc1 | 4.42
6 | CN(C)c1cc(Cl)c2nonc2c1N | 4.06
7 | Cn1c(O)c(/C=N/NC(=O)c2ccncc2)c(=O)[nH]c1=S | 4.29
8 | O=C1NC(=Nc2ccc(O)cc2)S/C1=C\C=C\c1ccco1 | 4.74
9 | Brc1c(CSc2nnc(-c3ccco3)o2)nc2ccccn12 | 4.62
10 | CC(C)N1C(=O)CC(Nc2ccc(N3CCOCC3)cc2)C1=O (centres undefined) | 4.80
11 | COc1ccccc1-n1c(-c2cc(-c3ccco3)[nH]n2)n[nH]c1=S | 5.27
12 | C=CCOC(=O)C1=C(C)NC(SCC(=O)Nc2ccccc2)=C(C#N)C1c1ccco1 (centres undefined) | 4.24
13 | COC(=O)c1ccc(C(=O)OC)c(NC(=O)Cc2cccs2)c1 | 4.19
14 | CCOc1cccc(=O)c2c(C)n(C)c(C)c12 | 4.26
15 | O=C(Nc1ccccc1F)c1coc(=O)c(Br)c1 | 4.82
16 | O=c1oc2c3c4c(cc2s1)CCCN4CCC3 | 4.59
17 | COC(=O)CCCC(=O)Nc1c(F)c(F)c(F)c(F)c1F | 4.11
18 | O=C(O)COc1ccc2c(c1)O/C(=C\c1ccco1)C2=O | 4.27
19 | CC(C)c1ccc(N2C(=O)NC(=O)/C(=C\C=C\c3ccco3)C2=O)cc1 | 4.47
20 | O=C(Nc1cc(Cl)cc(Cl)c1)c1coc(=O)c(Br)c1 | 4.63

Row | SMILES | pIC50
21 | O=C(N/N=C/C(Br)=C/c1ccccc1)c1cc(-c2ccco2)[nH]n1 | 5.07
22 | CC(=O)OC1COC(n2ccc3ccccc32)C(OC(C)=O)C1OC(C)=O (centres undefined) | 4.05
23 | COc1cccc(CNC(=O)CCNS(=O)(=O)c2cccs2)c1 | 5.04
24 | Cc1ccc(/C=C/C(=O)Nc2ncc(C)s2)o1 | 4.80
25 | O=C(O)c1cc2cccc(S(=O)(=O)N3CCOCC3)c2cc1O | 4.10
26 | CC(C)n1c(=NC(=O)c2ccco2)c(C#N)cc2c(=O)n3ccccc3cc21 | 4.02
27 | CN1c2ccsc2C(O)=C(C(=S)Nc2ccc(F)c(Cl)c2)S1(=O)=O | 5.27
28 | O=C1NC(c2ccc(Br)cc2)=N/C1=C/c1ccco1 | 5.17
29 | Nc1cccc2c(O)cc(S(=O)(=O)O)cc12 | 4.71
30 | O=C(NC1CCCC1)c1ccc2nc(-c3ccco3)c(-c3ccco3)nc2c1 | 5.68
31 | Cc1cc(C)cc(Nc2ncc3c(n2)CC(c2ccco2)CC3=O)c1 (centres undefined) | 4.37
32 | CCN(CC)S(=O)(=O)c1cccc(C(=O)N/N=C/c2ccc(O)c(O)c2O)c1 | 4.03
33 | O=C(Cc1csc(N2CCOCC2)n1)N/N=C/c1ccc(O)c(O)c1O | 4.78
34 | O=[N+]([O-])c1cc(-c2ccc(/C=N/c3nc4ccccn4c3-c3ccco3)o2)ccc1Cl | 4.54
35 | Cc1cc(C(=O)CSc2nc3ccccc3c(=O)[nH]2)c(C)n1C | 4.31
36 | O=C1NC(=S)S/C1=C\c1ccc(SCc2ccco2)o1 | 6.03
37 | O=C(O)C1Nc2c(Cl)cc(Cl)cc2C2C=CCC12 (centres undefined) | 4.03
38 | CCOC1(OCC)N=C(N)C2(C#N)C(c3cccc(OC)c3OC)C12C#N (centres undefined) | 5.80
39 | Oc1cccc(C=NCc2ccccc2)c1O | 5.19
40 | O=C(NCCCO)c1ccc2nc(-c3ccco3)c(-c3ccco3)nc2c1 | 5.45

Row | SMILES | pIC50
41 | O=C(O)CCCCC1CCSS1 (centres undefined) | 5.23
42 | Oc1ccc(-c2cn3c(n2)SCC3)cc1O | 4.14
43 | O=C(O)CCc1ccc(-c2cccs2)n1-c1ccc(C(=O)O)cc1 | 4.34
44 | COc1ccc2c3c(cccc13)N(C)N=C2C | 4.96
45 | CCOC(=O)c1ccc2c(c1)C1C=CCC1C(C(=O)O)N2 (centres undefined) | 4.96
46 | CCOC(=O)C1CCN(C(=O)COc2ccc(S(=O)(=O)NC(C)C)cc2)CC1 | 4.09
47 | Cc1cccc2cc(-c3ccccc3)c(-c3ccccc3)c[n+]12 | 4.82
48 | CC1=NN(c2cccc(C(=O)O)c2)C(=O)/C1=C\C=C\c1ccco1 | 4.92
49 | COc1cccc(N2C(=O)NC(=O)/C(=C/c3ccc([N+](=O)[O-])s3)C2=O)c1 | 4.46
50 | CCOC(=O)Cn1nnnc1C(C(C)C)N(Cc1cc2c(C)cc(C)cc2[nH]c1=O)C1CCCC1 (centres undefined) | 4.17
51 | Cc1ccc([C@@H]2C3COCC=C3C(C#N)=C(N)C2(C#N)C#N)o1 (some centres undefined) | 5.39
52 | O=C1/C(=C\c2ccco2)NC(=S)N1c1ccccc1 | 4.79
53 | O=S(=O)(Nc1nccs1)c1ccc(Nc2nnc(-c3ccccc3)c3ccccc23)cc1 | 4.32
54 | Oc1ccc(/C=N/N2CCOCC2)c(O)c1O | 4.85
55 | Cc1cccc(C)c1NC(=O)CSc1nnc(-c2ccco2)c(-c2ccco2)n1 | 5.19
56 | Cc1ccc(NC(=O)CN2C(=O)N/C(=C/c3ccco3)C2=O)cc1 | 4.44
57 | O=C(CCN1CCN(c2ccccc2)CC1)N/N=C/c1ccc(O)c(O)c1O | 5.31
58 | Cc1ccc2c(c1)C1C=CCC1C(C(=O)O)N2 (centres undefined) | 5.43
59 | CCn1c(SC(C)C(=O)O)nc2sc3c(c2c1=O)CCC3 (centres undefined) | 4.15
